We go through 20 molecules from ChEMBL document CHEMBL1201862, “PubChem BioAssay data set” (2004).

Counter-ions that a name gives are not always drawn.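 Cultured in 96-well plates, cells were exposed to test compound for 48 hours across five concentrations. The concentration for 50% growth inhibition is given as GI50.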 Calls of active or inactive are those of the source. No stated cut-off is given here; in the data, active = GI50 up to about 1.1 µM and inactive = higher. Where only a bound is given, the exact number is not on record here.

Among the test systems are BT-549; MDA-N; MDA-MB-435; Hs-578T; RXF 631; DLD-1; SNB-78; LXFL 529; M19-MEL.
What all share (test): NCI tumour cell line growth inhibition, 48 h

Regarding `CNCCC=C1c2ccccc2CCc2ccccc21` [NORTRIPTYLINE HYDROCHLORIDE], the GI50 in the test with BT-549 was 15.5 µM (inactive); in the test on MDA-N, 15.6 µM (inactive); in the test on MDA-MB-435, 13.5 µM (inactive); in the test with Hs-578T it was 19.6 µM (inactive).

Take `CCCCn1cc[n+](-c2nc3ccccc3n2C)c1`: the GI50 in the test on RXF 631, with DLD-1, in the test on SNB-78 and with LXFL 529 was > 100 µM (inactive) throughout.

With `C=CC1(c2ccc3ccccc3c2)OCC(CC)O1` (stereo not given), the GI50 was 24.8 µM (inactive) with MDA-N, 63.4 µM (inactive) in the test with MDA-MB-435 and 22.4 µM (inactive) in the test with Hs-578T.

As for `COc1ccc(C(O)/C(=N\NC(N)=S)c2nc3ccc([N+](=O)[O-])cc3nc2O)cc1OC` (stereo not given), the GI50 in the test on RXF 631, with DLD-1, with LXFL 529 and in the test on M19-MEL was > 100 µM (inactive) throughout.

`O=C(N[C@H]1c2ccsc2/C(=N/O)[C@H]1O)C(F)(F)F`: the GI50 in the test with BT-549, in the test on MDA-N, with MDA-MB-435 and in the test with Hs-578T was > 100 µM (inactive) each time.

In the case of `COC1=C(OC)C(=O)c2cc(SC)c(=O)c(SC)cc2C1=O`, the values for the GI50 with DLD-1 and in the test on LXFL 529 were 28.4 µM (inactive) and 15.8 µM (inactive), respectively.

For the molecule `C[C@]12CC[C@H]3[C@@H](CC=C4C[C@@H](O)CC[C@@]43C)[C@@H]1C/C(=C\c1ccc([N+](=O)[O-])cc1)[C@@H]2O`, the results for the GI50 with BT-549, with MDA-MB-435 and in the test on Hs-578T were 14.6 µM (inactive), 22.5 µM (inactive) and 16.9 µM (inactive), respectively.

For the molecule `CSCSCC(CO)NC(=O)/C(C)=C\c1c(C)[nH]c(=O)[nH]c1=O` (stereo not given), the GI50 in the test on DLD-1, with SNB-78 and in the test with M19-MEL was > 250 µM (inactive) throughout.

`ClCCCN1CCCCC1CCl` (stereo not given): the GI50 in the test on DLD-1, with LXFL 529 and in the test with M19-MEL was > 100 µM (inactive) in each case.

As for `CCCc1c(-c2ccccc2)[nH]c2ccccc2c1=O`, the GI50 in the test on BT-549 was 40.5 µM (inactive); with MDA-N, 41.4 µM (inactive); in the test on MDA-MB-435, 37.3 µM (inactive); with Hs-578T, > 100 µM (inactive).

For `COc1ccc(/C=C2/C(=O)N(C(=O)c3ccccc3O)N=C2C)cc1`, the GI50 with DLD-1 was 0.0828 µM (active); with SNB-78, 0.033 µM (active); with BT-549, 0.105 µM (active); in the test with LXFL 529, 0.205 µM (active); in the test on MDA-N, 0.125 µM (active); in the test with M19-MEL, 0.542 µM (active). In addition, the GI50 with MDA-MB-435 was 0.05 µM (active).

Consider `COc1cc2c(cc1OC)C1Cc3cc(OC)c(OC)cc3C(C2)O1`, for which the GI50 with BT-549, with MDA-N and with MDA-MB-435 was > 100 µM (inactive) in each case.

For the molecule `CN1CCc2[nH]c3ccccc3c2C1`, the GI50 in the test on DLD-1, in the test with SNB-78 and in the test on M19-MEL was > 100 µM (inactive) throughout.

For `CCOC(=O)C1=C(c2ccccc2)N(C(C)=O)Cc2ccccc21`, the GI50 in the test with DLD-1 is 28.7 µM (inactive); with LXFL 529 it was 22.5 µM (inactive); in the test on M19-MEL, 18.8 µM (inactive).

As to `CC(C)(CCCCC(C)(C)C1NC(=O)N1)C1NC(=O)N1`, the GI50 in the test on MDA-N, with MDA-MB-435 and with Hs-578T was > 10 µM (inactive) each time.

For the molecule `Cc1cc(C)c(NC(=O)/C=C/c2ccccc2)c(C)c1`, the GI50 in the test with BT-549 is > 100 µM (inactive); in the test on MDA-MB-435, > 100 µM (inactive); in the test with Hs-578T, 57.7 µM (inactive).

With `N#CCCN(c1ccc(/C=N/c2cccc([N+](=O)[O-])c2)cc1)S(=O)(=O)c1ccccc1`, the GI50 in the test on RXF 631, in the test with DLD-1, in the test on SNB-78 and in the test on LXFL 529 was > 100 µM (inactive) in each case.

For `C#CC(O)(c1nc2ccccc2s1)c1nc2ccccc2s1`, the GI50 is 16.6 µM (inactive) with BT-549, 21.2 µM (inactive) in the test on MDA-N, 23.1 µM (inactive) in the test on MDA-MB-435 and 36.4 µM (inactive) with Hs-578T.

Turning to `C/C(=C\c1ccccc1)C(=O)CCN1CCOCC1`, the results for the GI50 in the test on DLD-1, with SNB-78 and in the test with M19-MEL were 17.3 µM (inactive), 15.6 µM (inactive) and 17.2 µM (inactive), respectively.

Turning to `c1ccc(Nc2nnc(-c3nsc4ccccc34)o2)cc1`, the GI50 with SNB-78 is 89.5 µM (inactive); with LXFL 529 it was 85.5 µM (inactive); in the test on M19-MEL, > 100 µM (inactive).
